The record followed here is patent publication US9492471B2, “Methods of treating a disease or disorder associated with Bruton'S Tyrosine Kinase” (Celgene Avilomics Research, Inc., priority 2013, dated 2016).

The structures appear in SMILES notation. Read-outs that look alike come from different tables or passages of the source.

What all share (assay): HotSpot kinase profiling
What all share (assay type): biochemical

For one experiment, the target named is T1, CAMK1b (Homo sapiens, UniProt Q6P2M8).
T1 construct: purchased Reaction Biology Corp
T1 sequence (Q6P2M8 whole entry): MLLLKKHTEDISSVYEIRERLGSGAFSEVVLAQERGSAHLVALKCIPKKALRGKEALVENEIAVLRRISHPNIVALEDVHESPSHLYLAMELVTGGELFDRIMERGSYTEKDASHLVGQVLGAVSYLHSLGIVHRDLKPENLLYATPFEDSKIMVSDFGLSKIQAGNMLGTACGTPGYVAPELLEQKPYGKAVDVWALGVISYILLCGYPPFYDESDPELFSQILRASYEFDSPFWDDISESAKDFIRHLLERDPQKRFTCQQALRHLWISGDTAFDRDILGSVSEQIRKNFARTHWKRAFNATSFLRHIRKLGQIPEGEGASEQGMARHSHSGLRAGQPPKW
The method in brief: (§1)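 Radiometric kinase assay with P81 filter capture; each kinase was added to fresh substrate plus cofactors in reaction buffer and incubated 2 h at room temperature. Unreacted phosphate was washed off with 0.1% phosphoric acid before detection; percent inhibition is relative to DMSO control, averaged over replicates.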

For the next experiment, the target named is T2, SLK/STK2 (Homo sapiens, UniProt Q9H2G2).
T2 construct: purchased Reaction Biology Corp
T2 sequence (Q9H2G2 whole entry): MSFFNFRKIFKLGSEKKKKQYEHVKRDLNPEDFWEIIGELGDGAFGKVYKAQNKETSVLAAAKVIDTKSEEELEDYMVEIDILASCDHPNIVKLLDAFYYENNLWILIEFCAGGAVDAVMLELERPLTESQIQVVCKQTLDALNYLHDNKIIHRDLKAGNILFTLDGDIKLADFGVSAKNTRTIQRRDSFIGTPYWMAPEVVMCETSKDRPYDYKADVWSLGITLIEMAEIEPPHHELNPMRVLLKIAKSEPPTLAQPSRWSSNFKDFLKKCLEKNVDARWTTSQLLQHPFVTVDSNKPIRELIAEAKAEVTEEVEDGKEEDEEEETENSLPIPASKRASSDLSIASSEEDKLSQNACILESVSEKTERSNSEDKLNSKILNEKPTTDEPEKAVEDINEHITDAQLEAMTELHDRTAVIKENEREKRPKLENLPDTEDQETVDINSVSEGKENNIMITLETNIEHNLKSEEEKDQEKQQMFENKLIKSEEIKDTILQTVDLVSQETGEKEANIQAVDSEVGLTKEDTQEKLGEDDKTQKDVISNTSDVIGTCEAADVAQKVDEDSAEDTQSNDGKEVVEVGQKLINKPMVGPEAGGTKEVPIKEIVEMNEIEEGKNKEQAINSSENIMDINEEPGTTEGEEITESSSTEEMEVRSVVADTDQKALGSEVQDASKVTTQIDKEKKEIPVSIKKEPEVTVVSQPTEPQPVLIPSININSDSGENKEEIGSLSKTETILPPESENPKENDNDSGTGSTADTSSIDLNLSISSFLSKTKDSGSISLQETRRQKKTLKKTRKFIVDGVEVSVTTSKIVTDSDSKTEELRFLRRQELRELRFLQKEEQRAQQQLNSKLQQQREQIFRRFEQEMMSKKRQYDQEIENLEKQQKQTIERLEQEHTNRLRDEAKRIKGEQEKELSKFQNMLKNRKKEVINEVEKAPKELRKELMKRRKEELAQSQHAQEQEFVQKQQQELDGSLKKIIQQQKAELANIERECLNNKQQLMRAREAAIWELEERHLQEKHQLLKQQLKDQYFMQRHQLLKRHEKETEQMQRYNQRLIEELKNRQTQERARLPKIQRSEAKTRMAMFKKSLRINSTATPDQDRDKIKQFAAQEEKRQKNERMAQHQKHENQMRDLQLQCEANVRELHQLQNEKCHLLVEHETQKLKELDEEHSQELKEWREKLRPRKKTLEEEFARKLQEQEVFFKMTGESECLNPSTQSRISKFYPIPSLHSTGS
The method in brief: as §1

The target in a further experiment is T3, STK32B/YANK2 (Homo sapiens, UniProt Q9NY57).
T3 construct: purchased Reaction Biology Corp
T3 sequence (Q9NY57 whole entry): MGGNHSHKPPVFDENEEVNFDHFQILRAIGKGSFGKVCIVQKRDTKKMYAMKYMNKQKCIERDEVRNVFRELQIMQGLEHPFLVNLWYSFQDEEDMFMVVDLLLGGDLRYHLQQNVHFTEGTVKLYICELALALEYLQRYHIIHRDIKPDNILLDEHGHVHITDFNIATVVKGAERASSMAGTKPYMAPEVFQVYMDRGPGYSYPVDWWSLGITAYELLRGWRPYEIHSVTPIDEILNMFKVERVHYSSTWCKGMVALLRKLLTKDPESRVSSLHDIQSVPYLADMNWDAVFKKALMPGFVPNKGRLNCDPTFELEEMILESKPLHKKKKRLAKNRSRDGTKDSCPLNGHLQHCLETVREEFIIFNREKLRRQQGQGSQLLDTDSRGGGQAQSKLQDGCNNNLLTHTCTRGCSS
The method in brief:
as §1

A further experiment deals with T4, TRKC (Homo sapiens, UniProt Q16288).
T4 construct: purchased Reaction Biology Corp
T4 sequence (Q16288 32-839): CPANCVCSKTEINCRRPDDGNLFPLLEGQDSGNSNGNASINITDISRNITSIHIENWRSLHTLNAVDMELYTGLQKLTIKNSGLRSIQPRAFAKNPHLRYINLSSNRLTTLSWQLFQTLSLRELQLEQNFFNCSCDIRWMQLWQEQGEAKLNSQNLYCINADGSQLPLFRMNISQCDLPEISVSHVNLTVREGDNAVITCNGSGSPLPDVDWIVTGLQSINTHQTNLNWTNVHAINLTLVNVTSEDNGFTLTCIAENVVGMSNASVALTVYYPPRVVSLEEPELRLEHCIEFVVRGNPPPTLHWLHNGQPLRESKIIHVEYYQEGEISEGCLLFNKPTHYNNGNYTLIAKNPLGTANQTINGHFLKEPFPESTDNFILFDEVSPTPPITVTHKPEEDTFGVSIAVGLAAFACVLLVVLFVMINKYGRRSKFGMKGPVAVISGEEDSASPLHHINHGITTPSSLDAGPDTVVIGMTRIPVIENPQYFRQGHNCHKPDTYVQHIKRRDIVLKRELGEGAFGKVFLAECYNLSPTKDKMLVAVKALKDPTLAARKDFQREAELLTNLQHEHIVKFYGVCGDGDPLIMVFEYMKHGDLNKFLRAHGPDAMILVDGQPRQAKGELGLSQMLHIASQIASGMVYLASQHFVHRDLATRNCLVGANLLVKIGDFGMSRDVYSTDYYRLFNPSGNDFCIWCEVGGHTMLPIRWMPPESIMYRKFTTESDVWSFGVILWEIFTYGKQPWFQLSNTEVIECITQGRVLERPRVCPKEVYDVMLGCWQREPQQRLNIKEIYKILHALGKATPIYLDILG
The method in brief:
as §1

[1] abbreviates: read-out: % Enzyme Activity (relative to DMSO controls) Run 1.
The mark [2] stands for this setting: read-out: % Enzyme Activity (relative to DMSO controls) Run 2.

As usually defined, the inhibition is the drop in the measured response relative to a control, in per cent. As for `C=CC(=O)Nc1cccc(Nc2nc(Nc3ccc(OCCOC)c(F)c3)ncc2F)c1` [Compound 2], the inhibition at 3 µM was -4.43% against CAMK1b, 24.9% against SLK/STK2, 5.3% at STK32B/YANK2 and 66.3% against TRKC. The remaining activity at 3 µM on CAMK1b (setting [1]) worked out at 104%; at CAMK1b (setting [2]) it was 105%; on SLK/STK2 (setting [1]), 74.9%; at SLK/STK2 (setting [2]), 75.3%; at STK32B/YANK2 (setting [1]) it was 95.8%; on STK32B/YANK2 (setting [2]), 93.6%. Moreover, the remaining activity at 3 µM at TRKC (setting [1]) came out at 35.1%; at TRKC (setting [2]), 32.3%.
